According to ChEMBL document CHEMBL5512632, “Unlocking the potential of 1,4-naphthoquinones: A comprehensive review of their anticancer properties” (Eur J Med Chem, 2024):
pIC50: −log10 of the molar value. Values belong to the compound of their own block, whether it stands above or below them.

Experiments:
Calu-1 = assay: Cytotoxicity against human Calu-1 cells incubated for 48 hrs by MTT assay; format: functional, cell-based; settings: Calu-1, 48 h
HEC-1-A = assay: Cytotoxicity against human HEC-1-A cells incubated for 48 hrs by MTT assay; format: functional, cell-based
SK-MEL-28 = assay: Cytotoxicity against human SK-MEL-28 cells incubated for 48 hrs by MTT assay; format: functional, cell-based; settings: SK-MEL-28, 48 h
MDA-MB-231 = assay: Cytotoxicity against human MDA-MB-231 cells incubated for 48 hrs by XTT assay; format: functional, cell-based; settings: MDA-MB-231, 48 h
MOLT-3 = assay: Cytotoxicity against human MOLT-3 cells incubated for 48 hrs by XTT assay; format: functional, cell-based; settings: MOLT-3, 48 h
A549 [1] = assay: Cytotoxicity against human A549 cells incubated for 20 hrs by MTT assay; format: functional, cell-based; settings: A549, 20 h
PC-3 = assay: Growth inhibition of human PC-3 cells by Sulforhodamine B assay; format: functional
TK-10 = assay: Growth inhibition of human TK-10 cells by Sulforhodamine B assay; format: functional
UACC-62 = assay: Growth inhibition of human UACC-62 cells by Sulforhodamine B assay; format: functional
MCF7 [2] = assay: Growth inhibition of human MCF7 cells by Sulforhodamine B assay; format: functional
HT-29 = assay: Antiproliferative activity against human HT-29 cells assessed as reduction in cell viability incubated for 24 hrs by MTT assay; format: functional, cell-based; settings: HT-29, 24 h
A549 [3] = assay: Antiproliferative activity against human A549 cells assessed as inhibition of cell growth incubated for 24 hrs by trypan blue exclusion assay; format: functional, cell-based; settings: A549, 24 h
HepG2 = assay: Antiproliferative activity against human HepG2 cells assessed as inhibition of cell growth incubated for 24 hrs by MTT assay; format: functional, cell-based; settings: HepG2, 24 h
Huh-7 = assay: Antiproliferative activity against human Huh-7 cells assessed as inhibition of cell growth incubated for 24 hrs by MTT assay; format: functional, cell-based; settings: Huh-7, 24 h
Hep 3B2 = assay: Antiproliferative activity against human Hep3B cells assessed as inhibition of cell growth incubated for 24 hrs by MTT assay; format: functional, cell-based
[4] = Antiproliferative activity against human LA-N-1 cells assessed as inhibition of cell growth incubated for 48 hrs by MTT assay; format: functional, cell-based; settings: LAN1, 48 h
[5] = Antiproliferative activity against human NB-39-nu cells assessed as inhibition of cell growth incubated for 48 hrs by MTT assay; format: functional, cell-based
IMR-32 = assay: Antiproliferative activity against human IMR-32 cells assessed as inhibition of cell growth incubated for 48 hrs by MTT assay; format: functional, cell-based; settings: IMR-32, 48 h
SK-N-SH = assay: Antiproliferative activity against human SK-N-SH cells assessed as inhibition of cell growth incubated for 48 hrs by MTT assay; format: functional, cell-based
A549 [6] = assay: Cytotoxicity against human A549 cells assessed as inhibition of cell growth incubated for 48 hrs by MTT assay; format: functional, cell-based; settings: A549, 48 h
HeLa [7] = assay: Cytotoxicity against human HeLa cells assessed as inhibition of cell growth incubated for 48 hrs by MTT assay; format: functional, cell-based
MCF7 [8] = assay: Cytotoxicity against human MCF7 cells assessed as inhibition of cell growth incubated for 48 hrs by MTT assay; format: functional, cell-based; settings: MCF7, 48 h
B16 = assay: Cytotoxicity against mouse B16 cells assessed as inhibition of cell growth incubated for 48 hrs by MTT assay; format: functional, cell-based; settings: B16, 48 h
DU-145 [9] = assay: Cytotoxicity against human DU-145 cells assessed as inhibition of cell growth incubated for 48 hrs by MTT assay; format: functional, cell-based; settings: DU-145, 48 h
DU-145 [10] = assay: Antiproliferative activity against human DU-145 cells assessed as inhibition of cell growth incubated for 24 hrs by celltiter blue reagent based fluorimetric analysis; format: functional; settings: DU-145, 24 h
A549 [11] = assay: Antiproliferative activity against human A549 cells assessed as inhibition of cell growth incubated for 24 hrs by celltiter blue reagent based fluorimetric analysis; format: functional; settings: A549, 24 h
RD = assay: Antiproliferative activity against human RD cells assessed as inhibition of cell growth incubated for 24 hrs by celltiter blue reagent based fluorimetric analysis; format: functional
HeLa [12] = assay: Antiproliferative activity against human HeLa cells assessed as inhibition of cell growth incubated for 24 hrs by sulforhodamine B assay; format: functional, cell-based
SCC-9 = assay: Cytotoxicity against human SCC-9 cells assessed as inhibition of cell growth incubated for 48 hrs by MTT reagent based spectrophotometric analysis; format: functional; settings: SCC-9, 48 h
SCC-4 = assay: Cytotoxicity against human SCC-4 cells assessed as inhibition of cell growth incubated for 48 hrs by MTT reagent based spectrophotometric analysis; format: functional; settings: SCC-4, 48 h
SCC-25 = assay: Cytotoxicity against human SCC-25 cells assessed as inhibition of cell growth incubated for 48 hrs by MTT reagent based spectrophotometric analysis; format: functional; settings: SCC-25, 48 h
C-33-A = assay: Antiproliferative activity against human C-33-A cells assessed as inhibition of cell growth by crystal violet staining based spectrophotometric assay; format: functional
SiHa = assay: Antiproliferative activity against human SiHa cells assessed as inhibition of cell growth by crystal violet staining based spectrophotometric assay; format: functional
[13] = Antiproliferative activity against human CaLo cells assessed as inhibition of cell growth by crystal violet staining based spectrophotometric assay; format: functional

Compound: O=C1C(Cl)=C(NCCN2CCOCC2)C(=O)c2ccccc21
pIC50 (Calu-1): 5.36
pIC50 (HEC-1-A): 4.84
pIC50 (SK-MEL-28): 4.99

Compound: Cc1ccc(NC2=C(Cl)C(=O)c3ccccc3C2=O)cc1
pIC50 (MDA-MB-231): 4.97
pIC50 (MOLT-3): 5.37

Compound: O=C1C(Cl)=C(Nc2ccccc2)C(=O)c2ccccc21
pIC50 (A549 [1]): 5.24

Compound: CCc1ccc(-c2cn(CCNC3=C(C)C(=O)c4ccccc4C3=O)nn2)cc1
pIC50 (A549 [6]): 5.04
pIC50 (HeLa [7]): 4.58
pIC50 (MCF7 [8]): 5.06
pIC50 (B16): 4.69
pIC50 (DU-145 [9]): 5.10

Compound: COC(=O)N(Cc1ccccc1)C(C1=C(O)C(=O)c2ccccc2C1=O)c1ccc(Cl)cc1 (centres undefined)
pIC50 (SCC-9): 4.25
pIC50 (SCC-4): 4.03
pIC50 (SCC-25): 4.06

Compound: O=C1C(Cl)=C(NC(Cc2ccc(O)cc2)C(=O)O)C(=O)c2ccccc21 (centres undefined)
pIC50 (C-33-A): 9.00
pIC50 (SiHa): 5.17
pIC50 [13]: 5.54

The next lines start with results.

GI50 (PC-3): 7.21 µM
GI50 (MCF7 [2]): 7.75 µM
Compound: O=C1C(Sc2ccc3ccccc3c2)=C(Sc2ccc3ccccc3c2)C(=O)c2ccccc21
GI50 (TK-10): 8.26 µM
GI50 (UACC-62): 9.92 µM

pIC50 (HT-29): 5.49
Compound: CCOC(=O)c1cn(C2=CC(=O)c3ccccc3C2=O)nn1

pIC50 (A549 [3]): 5.68
Compound: CCCC[S+]([O-])C1=CC(=O)c2ccccc2C1=O (centres undefined)

pIC50 (HepG2): 5.07
pIC50 (Huh-7): 5.71
Compound: CCCCCCCC[S+]([O-])C1=CC(=O)c2ccccc2C1=O (centres undefined)
pIC50 (Hep 3B2): 6.02

pIC50 (SK-N-SH): 5.46
Compound: COCCSC1=C(C)C(=O)c2ccccc2C1=O
pIC50 [4]: 5.81
pIC50 [5]: 4.97
pIC50 (IMR-32): 5.61

pIC50 (DU-145 [10]): 6.40
pIC50 (A549 [11]): 6.30
Compound: O=C1C=C(CCCCCCCCCC[P+](c2ccccc2)(c2ccccc2)c2ccccc2)C(=O)c2ccccc21
pIC50 (RD): 7.70

pIC50 (HeLa [12]): 5.49
Compound: O=C1C(Cl)=C(Nc2ccc(O)cc2)C(=O)c2ccccc21
